Measured values as given in patent US20050208029A1, “Method of forming pancreatic beta cells from mesenchymal cells” (priority 2002, published 2005).

Tested on: KUSA/A1 cells
Assay: Insulin concentration (ELISA) in supernatant of KUSA/A1 cells cultured 12 days with or without bFGF
Type: cell-based, mouse
Conditions: 2 h after 25.0 mM glucose
Procedure: The KUSA/A1 cells obtained in Example 1 were treated with trypsin and transferred to a 6-well dish (product of Falcon) so that the cell density might become as low as possible.
The cells were cultured in serum-free DMEM containing insulin, transferrin, progesterone, putrescine and selenium or in DMEM containing 10% FBS at 33° C. for 12 days using an incubator with a CO2 concentration of 5%.
bFGF (recombinant human basic fibroblast growth factor; product of R&D) was added to each of the serum-free or serum-containing wells to a final concentration of 10 ng/ml. Hereafter, unless otherwise specified, cell culture was carried out under the same conditions while medium exchange was conducted at 2-day intervals.
After 12 days of cultivation, the medium in each well was discarded, the cells in each well were washed repeatedly with three portions of PBS. After washing, 2 ml of PBS was added to each well afresh, and cultivation was performed at 33° C. for 2 hours using an incubator with a CO2 concentration of 5%.
After 2 hours of cultivation, the PBS was discarded, 2 ml of DMEM containing 25.0 mM glucose was added afresh, and cultivation was performed at 33° C. for further 2 hours using an incubator with a CO2 concentration of 5%. […]

Substance: bFGF: recombinant human basic fibroblast growth factor; product of R&D; used as pancreatic β cell forming agent
- insulin detected in the supernatant (DMEM containing bFGF (10 ng/ml) and 10% FBS, below assay sensitivity limit): below 39 pg/mL
- insulin detected in the supernatant (serum-free DMEM containing bFGF (10 ng/ml), insulin, transferrin, progesterone, putrescine and selenium): 223 pg/mL
